Reference: patent publication US8664276B2, “Stilbene analogs and methods of treating cancer” (University of Kentucky Research Foundation, priority 2011, dated 2014)

Legend:
HT29 xenografted tumors = assay: HT29 tumor xenograft in nude mice, oral gavage; format: in vivo; conditions: HT29, 20 mg/kg in PEG400 by gavage
Procedure: Tumor xenograft in nude mice. LS174 or HT29 colon cancer cells (2×10^6) were injected subcutaneously into both flanks of 6-8 week C57BL/6J athymic nude mice as described in Zhang et al., Mol Cell Biol 2006, 26, 2055-2064. Compound 4r or 4dd was dissolved in corn oil or PEG400. The mice were treated with 20 mg/kg/day of 4r by ip injection or gavage (50 μl/mouse). Control mice were treated with same volume of corn oil or PEG400. The body weight and tumor growth were analyzed twice weekly for one month. Tumor size was measured using digital caliper. The tumor volume was calculated by the formula: V=½LW^2 (mm^3).
Xenografted nude mice were developed according to the protocol described above and in Zhang et al., J. of Med. Chem. 54, 1288-1297 (2011)). Briefly, HT29 cells were injected subcutaneously into the flanks of nude mice. The mice were then treated with 20 mg/kg compound 4dd dissolved in PEG400 by gavage. As described in Example 7, an IP injection of compound 4r dissolved in corn oil inhibited xenograft tumor growth. Here, it was also shown that the halogenated stilbenes of the present disclosure can also be dissolved in other solvents such as PEG400 and cyclodextran.

LS174 CRC cells = assay: CRC cell proliferation assay (Vi-Cell); format: cell-based
Procedure: Luciferase and cell proliferation assay. HEK293T cells were transiently transfected in a 12-well plate with 0.2 μg of the Super8xTOPFlash reporter and 0.05 μg of Renilla luciferase reporter. Culture medium was changed after 12 h. After 6 h, cells were treated with DMSO or Wnt inhibitors for 12 h, and then treated with 25 mM LiCl or Wnt conditioned medium. After 12 h, cells were harvested and luciferase activity measured by Dual-luciferase Reporter Assay System (Promega, Madison Wis.). All conditions were done in triplicate and each experiment was carried out at least two times. For cell proliferation assay, CRC cells were treated with DMSO or inhibitors for 2d and 4d. The cell numbers and viability were analyzed by Vi-Cell Cell Viability Analyzer.
(§1) Western blot and cell proliferation assay. The activity of fluorinated N,N-dialkylaminostilbenes (FIDAS or FIDAS agents) on Wnt signaling activity in cancer cells were analyzed by Western blot with antibodies against Wnt target genes, such as c-Myc, Axin2. The effects of FlDAS agents on cancer cell growth were analyzed using Cell Viability Analyzer (Beckman Coulter, Vi-Cell XR). These assays have been described previously (see Zhang et al., J. of Med. Chem. 54, 1288-1297 (2011)).

Tolerability in mice = format: in vivo
Procedure: Therefore, as shown in this example, the halogenated stilbene analogs of the present disclosure are capable of inhibiting CRC both in vitro and in vivo. In another study, it was shown that mice could tolerate at least 200 mg/kg of a halogenated stilbene analog, FlDAS 4dd.

MAT2A [1] = target: T1, MAT2A (Homo sapiens, UniProt P31153); assay: Cell based SAM and SAH analysis in LS174 colon cancer cells (LC-MS/MS); design: endogenous in cells; host or cells: LS174T; conditions: 3 μM of 4dd versus 10 uM of 4r and 30 uM of resveratrol
Procedure: (§2) SAM and SAH analysis by LC-MS/MS. The LC-MS/MS system consisted of two Varian ProStar 210 LC Pumps coupled with a Varian 1200L triple quadrupole mass spectrometer. The separation was performed on a Hypercarb column (50 mm×2.1 mm, […], Thermo Scientific #35003-052130). Gradient elution started with 98% solution A (0.1% formic acid in water), followed by an increase to 38% solution B (0.1% formic acid in acetonitrile) in 8 min. The column was than flushed with 90% B for 5 min and regenerated with 98% A for another 8 min. The flow rate was 0.25 mL/min. Between the 3rd and 11th min, the eluent was switched to the ion source of the mass spectrometer. The precursor product transitions for SAM (m/z 399→250), SAH (m/z 385→250) and [d-4]-SAH (m/z 389→136) were monitored. The optimized ion source parameters were: Capillary Voltage: 32 V for both SAM and SAH, Collision energy: 9 V and 7V for SAM and SAH, respectively, Needle voltage: 5000 V and the Shield voltage: 600V. Nitrogen was used as the drying gas at a temperature of 300° C. and the interface heater was set to 50° C. The drying gas and nebulizing gas were set to 20 and 50 psi, respectively.
Cell based SAM analysis. […] 5 ul of supernatants were analyzed by LC-MS/MS using a modified method based on a previous publication (see Krijt et al., J Chromatogr B Analyt Technol Biomed Life Sci 877, 2061-6, (2009)). […]

liver cancer cells = assay: Liver cancer cell proliferation; format: cell-based; conditions: FIG. 15
Procedure: as §1
As previously shown, several metabolites of the halogenated stilbenes of the present disclosure were synthesized (Example 2 and FIG. 3). In this study, the effects of some of these metabolites on cell proliferation were studied.

[2] = system: Wnt target genes, Axin2 and c-Myc; assay: Western blot of Wnt target proteins in LS174 CRC cells; format: cell-based
Procedure: Western blot. Western blots were performed using the following antibodies: β-catenin (Sigma, C2206), c-Myc (Epitomics, 1472-1), Axin2 (Cell Signaling, 2151), β-Actin (Sigma, A1978), TCF4 (Epitomics, 2114-1) and pygopus2 (Santa Cruz, sc-74878), Cyclin D1 (Cell signaling, 2926).
(§3) Cyclin B1 levels were decreased, whereas p21^WAF1/CIP1 levels increased, consistent with the fact that p21^WAF1/CIP1 expression is repressed by c-Myc. β-catenin levels were not affected by resveratrol. Next, the mRNA levels of β-catenin target genes were analyzed using RT-PCR. Expression of survivin, Lgr5, CD44, and c-Myc were decreased in resveratrol-treated cells.
A panel of stilbene analogs was designed and synthesized (FIGS. 2, 3, 5A and 6A). […] However, the solubility of 4d was poor and it was not effective below 10 μM concentrations (data not shown). To improve its solubility and activity, compound 4d was modified with 2′-fluoro 4e, 3′-fluoro 4f and 4′-fluoro 4g substituents (FIG. 5D). Both compounds 4e and 4f had good activity at 10 μM, (E)-4-(2-fluorostyryl)-N,N-dimethylaniline.
as §1

Solubility = format: physicochemical
β-catenin target genes = assay: RT-PCR of β-catenin target genes in LS174 cells; format: cell-based; conditions: LS174 cells
Procedure: RT-PCR. LS174 cells were treated with DMSO or Wnt inhibitors. After 36 h, RNA was isolated using the RNeasy kit (Qiagen). RT-PCR was performed as described in Zhang et al., Mol Cell Biol 2006, 26, 2055-2064. The following primers were used: β-actin: 5′-CAACCGCGAGAAGATGAC-3′ (SEQ ID NO:01), 5′-AGGAAGGCTGGAAGAGTG-3′ (SEQ ID NO:02); surivivin: 5′-[…]-3′ (SEQ ID NO:03), 5′-[…]-3′ (SEQ ID NO:04); c-Myc: 5′-TGGGCTGTGAGGAGGTTTG-3′ (SEQ ID NO:05), 5′-TATGTGGAGCGGCTTCTCG-3′ (SEQ ID NO:06); Axin2: 5′-[…]-3′ (SEQ ID NO:07), 5′-[…]-3′ (SEQ ID NO:08); TCF4: 5′-[…]-3′ (SEQ ID NO:09), 5′-[…]-3′ (SEQ ID NO:10); pygopus2: 5′-GGCCGGTCTGCAAATGAAG-3′ (SEQ ID NO:11), 5′-TCCACCTCCAGTGCTGTAG-3′ (SEQ ID NO:12); Lgr5: 5′-[…]-3′ (SEQ ID NO:13), 5′-[…]-3′ (SEQ ID NO:14); CD44: 5′-[…]-3′ (SEQ ID NO:15), 5′-[…]-3′ (SEQ ID NO:16); Ki67: 5′-[…]-3′ (SEQ ID NO:17), 5′-[…]-3′ (SEQ ID NO:18).
as §3

MAT2A [3] = target: T1, MAT2A; assay: In-vitro SAM synthesis by MAT2A (LC-MS/MS); format: biochemical; design: GST (N); made in house
Procedure: as §2
SAM synthesis. […] purified MAT2A was incubated with 1 mM L-methionine and 1 mM ATP in […] reaction solution (50 mM Tris.Cl, 50 mM KCl, 10 mM MgCl2) for 5 min at 25° C. […] SAM was analyzed by LC-MS/MS. […]

Wnt signaling = assay: TopFlash luciferase reporter assay in HEK293T cells; format: cell-based; conditions: HEK293T
Procedure: Luciferase and cell proliferation assay. HEK293T cells were transiently transfected in a 12-well plate with 0.2 μg of the Super8xTOPFlash reporter and 0.05 μg of Renilla luciferase reporter. Culture medium was changed after 12 h. After 6 h, cells were treated with DMSO or Wnt inhibitors for 12 h, and then treated with 25 mM LiCl or Wnt conditioned medium. After 12 h, cells were harvested and luciferase activity measured by Dual-luciferase Reporter Assay System (Promega, Madison Wis.). All conditions were done in triplicate and each experiment was carried out at least two times. For cell proliferation assay, CRC cells were treated with DMSO or inhibitors for 2d and 4d. The cell numbers and viability were analyzed by Vi-Cell Cell Viability Analyzer. To identify Wnt pathway inhibitors for CRC prevention and treatment, a number of anti-cancer agents from plants were screened using the TopFlash reporter assay. The TopFlash reporter was transfected into HEK293T cells, and the cells were treated with Wnt3A-conditioned medium in order to activate the luciferase reporter. […] To determine if resveratrol regulates β-catenin degradation, the cells were treated with 25 mM LiCl, which inhibits GSK-3 and stabilizes β-catenin. In this assay, LiCl activated the reporter more strongly than Wnt3A conditioned medium. […] Emodin is an anti-cancer agent from plants; it exists in many unpurified resveratrol products. Emodin had no effect on Wnt signaling. See Zhang et al., J. of Med. Chem. 54, 1288-1297 (2011).

**Q.** Which “effect on body weight” value (HT29 xenografted tumors) does the source give for `CNc1ccc(/C=C/c2c(F)cccc2Cl)cc1` [4dd, (E)-4-(2-chloro-6-fluorostyryl)-N-methylaniline] here?
**A.** without any adverse effect

**Q.** And the “growth of xenografted tumors” value (HT29 xenografted tumors)?
**A.** significantly inhibits

**Q.** And the “colon cancer cell proliferation, effectiveness versus resveratrol and 4r” value (LS174 CRC cells; FIG. 14)?
**A.** significantly more effective than resveratrol, as well as compound 4r

**Q.** And the tolerated dose (Tolerability in mice)?
**A.** at least 200 mg/kg

**Q.** What about the body weights (Tolerability in mice; 200 mg/kg (data not shown)) of the same molecule?
**A.** reduced after one week but were recovered to normal weight after stopping 4dd treatment

**Q.** And the “inhibition of MAT2A and reduction of SAM and SAH” value (MAT2A [1])?
**A.** even more potent than 4r

**Q.** And the “liver cancer cell proliferation, effectiveness versus resveratrol and 4r” value (liver cancer cells)?
**A.** significantly more effective than resveratrol, as well as compound 4r

**Q.** Which “repression of Wnt target genes at 30 μM” value ([2]; 30 μM, CRC cells) does the source give for `CN(C)c1ccc(/C=C/c2ccccc2)cc1` [4d, (E)-4-styryl-N,N-dimethylaniline, reference compound] here?
**A.** strongly repressed

**Q.** And the “Wnt inhibitory activity in Western blot, qualitative or relative to a comparator” value ([2]; CRC cells)?
**A.** more active than 4-methoxystilbene (4b)

**Q.** And the “effectiveness on Wnt target genes below 10 μM” value ([2]; below 10 μM concentrations (data not shown))?
**A.** not effective

**Q.** What about the solubility (Solubility) of the same molecule?
**A.** poor

**Q.** What does the source list for `Oc1ccc(/C=C/c2cc(O)cc(O)c2)cc1` [resveratrol, trans- or (E)-3,5,4′-trihydroxystilbene, reference compound]?
**A.** cell proliferation marker Ki67 mRNA (β-catenin target genes): also decreased; mRNA expression of survivin, Lgr5, CD44, and c-Myc (β-catenin target genes): decreased; MAT2A activity in SAM synthesis (MAT2A [3]): inhibit MAT2A activity; protein levels of TCF4 and pygopus2 ([2]; CRC cells): reduced; β-catenin levels ([2]; CRC cells): not affected; Cyclin B1 levels ([2]; LS174 CRC cells): decreased; p21WAF1/CIP1 levels ([2]; LS174 CRC cells): increased; protein levels of c-Myc and Cyclin D1 ([2]; LS174 CRC cells): reduced; protein levels of Wnt/β-catenin targets at 100 μM ([2]; LS174 cells, 100 μM): reduced the protein levels; LS174 cell proliferation (LS174 CRC cells; treated for 2d and 4d): inhibited cell proliferation; LiCl-induced Wnt signaling (Wnt signaling; 25 mM LiCl): strongly inhibited; Wnt-induced luciferase activity (Wnt signaling; Wnt3A-conditioned medium, 100 μM): significantly inhibited
